Data reported in ChEMBL document CHEMBL3596165, “Synthesis, structure elucidation and identification of antiproliferative activities of a novel class of thiophene bioisosteres bearing the privileged 7,8-dihydroimidazo[2,1-c][1,2,4]triazin-4(6H)-one scaffold” (Bioorg Med Chem, 2015).
Activity calls are given as the source filed them. No cut-off for these calls is given here.

Assays:
[1] = test system: HeLa; assay: Antiproliferative activity against human HeLa cells after 48 hrs by BrdUrd incorporation assay; format: functional, cell-based
[2] = test system: Vero; assay: Antiproliferative activity against African green monkey Vero cells after 24 hrs by BrdUrd incorporation assay; format: cell-based; conditions: chlorocebus sabaeus
[3] = test system: A549; assay: Antiproliferative activity against human A549 cells after 48 hrs by BrdUrd incorporation assay; format: functional, cell-based; conditions: A549, 48 h
[4] = test system: TOV112D; assay: Antiproliferative activity against human TOV112D cells at 50 ug/ml after 72 hrs by BrdUrd incorporation assay; format: functional; conditions: read-out: GI
[5] = Antiproliferative activity against African green monkey Vero cells at 50 ug/ml after 48 hrs by BrdUrd incorporation assay; format: cell-based; conditions: chlorocebus sabaeus, read-out: GI
[6] = test system: Vero; assay: Antiproliferative activity against African green monkey Vero cells after 48 hrs by BrdUrd incorporation assay; format: cell-based; conditions: Chlorocebus sabaeus
[7] = test system: T47D; assay: Antiproliferative activity against human T47D cells after 24 hrs by BrdUrd incorporation assay; format: functional, cell-based
[8] = test system: A549; assay: Antiproliferative activity against human A549 cells at 50 ug/ml after 24 hrs by BrdUrd incorporation assay; format: functional; conditions: A549, 24 h, read-out: GI
[9] = test system: TOV112D; assay: Antiproliferative activity against human TOV112D cells after 72 hrs by BrdUrd incorporation assay; format: functional, cell-based
[10] = test system: TOV112D; assay: Antiproliferative activity against human TOV112D cells at 50 ug/ml after 24 hrs by BrdUrd incorporation assay; format: functional; conditions: read-out: GI
[11] = test system: TOV112D; assay: Antiproliferative activity against human TOV112D cells at 50 ug/ml after 48 hrs by BrdUrd incorporation assay; format: functional; conditions: read-out: GI
[12] = test system: HeLa; assay: Antiproliferative activity against human HeLa cells at 50 ug/ml after 24 hrs by BrdUrd incorporation assay; format: functional; conditions: read-out: GI
[13] = test system: A549; assay: Antiproliferative activity against human A549 cells after 72 hrs by BrdUrd incorporation assay; format: functional, cell-based; conditions: A549, 72 h
[14] = test system: TOV112D; assay: Antiproliferative activity against human TOV112D cells after 48 hrs by BrdUrd incorporation assay; format: functional, cell-based
[15] = test system: T47D; assay: Antiproliferative activity against human T47D cells at 50 ug/ml after 72 hrs by BrdUrd incorporation assay; format: functional; conditions: read-out: GI
[16] = test system: TOV112D; assay: Antiproliferative activity against human TOV112D cells after 24 hrs by BrdUrd incorporation assay; format: functional, cell-based
[17] = test system: Vero; assay: Antiproliferative activity against African green monkey Vero cells at 50 ug/ml after 24 hrs by BrdUrd incorporation assay; format: cell-based; conditions: chlorocebus sabaeus
[18] = test system: T47D; assay: Antiproliferative activity against human T47D cells at 50 ug/ml after 24 hrs by BrdUrd incorporation assay; format: functional; conditions: read-out: GI
[19] = test system: Vero; assay: Antiproliferative activity against African green monkey Vero cells after 72 hrs by BrdUrd incorporation assay; format: cell-based; conditions: Chlorocebus sabaeus
[20] = test system: HeLa; assay: Antiproliferative activity against human HeLa cells at 50 ug/ml after 48 hrs by BrdUrd incorporation assay; format: functional; conditions: read-out: GI
[21] = test system: HeLa; assay: Antiproliferative activity against human HeLa cells after 24 hrs by BrdUrd incorporation assay; format: functional, cell-based
[22] = test system: HeLa; assay: Antiproliferative activity against human HeLa cells at 50 ug/ml after 72 hrs by BrdUrd incorporation assay; format: functional; conditions: read-out: GI
[23] = test system: T47D; assay: Antiproliferative activity against human T47D cells after 72 hrs by BrdUrd incorporation assay; format: functional, cell-based
[24] = test system: HeLa; assay: Antiproliferative activity against human HeLa cells after 72 hrs by BrdUrd incorporation assay; format: functional, cell-based
[25] = Antiproliferative activity against African green monkey Vero cells at 50 ug/ml after 72 hrs by BrdUrd incorporation assay; format: cell-based; conditions: chlorocebus sabaeus, read-out: GI
[26] = test system: A549; assay: Antiproliferative activity against human A549 cells after 24 hrs by BrdUrd incorporation assay; format: functional, cell-based; conditions: A549, 24 h
[27] = test system: T47D; assay: Antiproliferative activity against human T47D cells after 48 hrs by BrdUrd incorporation assay; format: functional, cell-based
[28] = test system: T47D; assay: Antiproliferative activity against human T47D cells at 50 ug/ml after 48 hrs by BrdUrd incorporation assay; format: functional; conditions: read-out: GI
[29] = test system: A549; assay: Antiproliferative activity against human A549 cells at 50 ug/ml after 72 hrs by BrdUrd incorporation assay; format: functional; conditions: A549, 72 h, read-out: GI
[30] = test system: A549; assay: Antiproliferative activity against human A549 cells at 50 ug/ml after 48 hrs by BrdUrd incorporation assay; format: functional; conditions: A549, 48 h, read-out: GI
[31] = test system: HeLa; assay: Antiproliferative activity against human HeLa cells at 100 ug/ml after 72 hrs by BrdUrd incorporation assay; format: functional; conditions: read-out: GI
[32] = test system: T47D; assay: Antiproliferative activity against human T47D cells at 100 ug/ml after 24 hrs by BrdUrd incorporation assay; format: functional; conditions: read-out: GI
[33] = test system: A549; assay: Antiproliferative activity against human A549 cells at 100 ug/ml after 24 hrs by BrdUrd incorporation assay; format: functional; conditions: A549, 24 h, read-out: GI
[34] = test system: T47D; assay: Antiproliferative activity against human T47D cells at 100 ug/ml after 72 hrs by BrdUrd incorporation assay; format: functional; conditions: read-out: GI
[35] = test system: HeLa; assay: Antiproliferative activity against human HeLa cells at 100 ug/ml after 24 hrs by BrdUrd incorporation assay; format: functional; conditions: read-out: GI
[36] = test system: HeLa; assay: Antiproliferative activity against human HeLa cells at 100 ug/ml after 48 hrs by BrdUrd incorporation assay; format: functional; conditions: read-out: GI
[37] = test system: T47D; assay: Antiproliferative activity against human T47D cells at 100 ug/ml after 48 hrs by BrdUrd incorporation assay; format: functional; conditions: read-out: GI
[38] = test system: Vero; assay: Antiproliferative activity against African green monkey Vero cells at 100 ug/ml after 24 hrs by BrdUrd incorporation assay; format: cell-based; conditions: chlorocebus sabaeus
[39] = test system: A549; assay: Antiproliferative activity against human A549 cells at 100 ug/ml after 48 hrs by BrdUrd incorporation assay; format: functional; conditions: A549, 48 h, read-out: GI
[40] = test system: A549; assay: Antiproliferative activity against human A549 cells at 100 ug/ml after 72 hrs by BrdUrd incorporation assay; format: functional; conditions: A549, 72 h, read-out: GI
[41] = Antiproliferative activity against African green monkey Vero cells at 100 ug/ml after 72 hrs by BrdUrd incorporation assay; format: cell-based; conditions: chlorocebus sabaeus, read-out: GI
[42] = Antiproliferative activity against African green monkey Vero cells at 100 ug/ml after 48 hrs by BrdUrd incorporation assay; format: cell-based; conditions: chlorocebus sabaeus, read-out: GI
[43] = test system: Vero; assay: Induction of necrosis in African green monkey Vero cells at 10 ug/ml after 72 hrs by fluorescence microscopic analysis; format: functional, cell-based; conditions: Chlorocebus sabaeus
[44] = test system: T47D; assay: Induction of necrosis in human T47D cells at 10 ug/ml after 72 hrs by fluorescence microscopic analysis; format: functional, cell-based
[45] = test system: HeLa; assay: Induction of apoptosis in human HeLa cells at 10 ug/ml after 72 hrs by fluorescence microscopic analysis; format: functional
[46] = test system: Vero; assay: Induction of apoptosis in African green monkey Vero cells at 10 ug/ml after 72 hrs by fluorescence microscopic analysis; format: functional, cell-based; conditions: Chlorocebus sabaeus
[47] = test system: HeLa; assay: Induction of necrosis in human HeLa cells at 10 ug/ml after 72 hrs by fluorescence microscopic analysis; format: functional
[48] = test system: T47D; assay: Induction of apoptosis in human T47D cells at 10 ug/ml after 72 hrs by fluorescence microscopic analysis; format: functional, cell-based

IC50 [1] [µM]	IC50 [3] [µM]	IC50 [7] [µM]	IC50 [13] [µM]	Compound	IC50 [2] [µM]	inhibition of growth at 50 µg/mL [4] [%]	inhibition at 48 h, 50 ug/ml [5] [%]	IC50 [6] [µM]	inhibition of growth at 50 µg/mL [8] [%]	IC50 [9] [µM]	inhibition of growth at 50 µg/mL [10] [%]	inhibition of growth at 50 µg/mL [11] [%]	inhibition of growth at 50 µg/mL [12] [%]	IC50 [14] [µM]	inhibition of growth at 50 µg/mL [15] [%]	IC50 [16] [µM]	growth inhibition (GI) [17] [%]	inhibition of growth at 50 µg/mL [18] [%]	IC50 [19] [µM]	inhibition of growth at 50 µg/mL [20] [%]	also measured
80	80	80	80	O=c1c(-c2cccs2)nnc2n1CCN2c1cccc(Cl)c1	80	100	100	80	90	80	90	100	90	80	100	80	100	100	80	100	IC50 [21]: 80 µM; inhibition of growth at 50 µg/mL [22]: 100%; IC50 [23]: 80 µM; IC50 [24]: 80 µM; inhibition at 72 h, 50 ug/ml [25]: 100%; IC50 [26]: 80 µM; IC50 [27]: 80 µM; inhibition of growth at 50 µg/mL [28]: 100%; inhibition of growth at 50 µg/mL [29]: 100%; inhibition of growth at 50 µg/mL [30]: 100%
				Nc1nc2[nH]cc(CCc3ccc(C(=O)N[C@@H](CCC(=O)O)C(=O)O)cc3)c2c(=O)[nH]1 [PEMETREXED]																	inhibition of growth at 100 µg/mL [31]: 20%; inhibition of growth at 100 µg/mL [32]: 10%; inhibition of growth at 100 µg/mL [33]: 10%; inhibition of growth at 100 µg/mL [34]: 30%; inhibition of growth at 100 µg/mL [35]: 5%; inhibition of growth at 100 µg/mL [36]: 10%; inhibition of growth at 100 µg/mL [37]: 20%; growth inhibition (GI) [38]: 5%; inhibition of growth at 100 µg/mL [39]: 30%; inhibition of growth at 100 µg/mL [40]: 50%; inhibition at 72 h, 100 ug/ml [41]: 20%; inhibition at 48 h, 100 ug/ml [42]: 10%
80	70	80	70	O=c1c(-c2cccs2)nnc2n1CCN2c1ccc(Cl)c(Cl)c1	> 140	100	50	140	90	70	90	100	50	70	100	80	25	90	80	90	Activity [43]: Active; Activity [44]: Active; Activity [45]: 5%; Activity [46]: Active; Activity [47]: 95%; IC50 [21]: 140 µM; inhibition of growth at 50 µg/mL [22]: 100%; IC50 [23]: 70 µM; IC50 [24]: 70 µM; inhibition at 72 h, 50 ug/ml [25]: 90%; IC50 [26]: 80 µM; IC50 [27]: 70 µM; Activity [48]: Active; inhibition of growth at 50 µg/mL [28]: 100%; inhibition of growth at 50 µg/mL [29]: 100%; inhibition of growth at 50 µg/mL [30]: 100%
